These results are taken from patent US6875761B2 (Eisai Co., Ltd., priority 1997, dated 2005).

Structures are written as SMILES. Structures can show the parent of a compound that is named as a salt.

For the compound `CCN1CCN(c2nc(-c3ccc(OCCO)cc3)cc3cc(F)ccc23)CC1` (as salt: hydrochloride) [Example 223, 1-(4-ethylpiperazin-1-yl)-3-[4-(2-hydroxyethoxy)phenyl]-6-fluoroisoquinoline dihydrochloride], the melting point is 152 to 170 °C. The figure for `CCN1CCN(c2nc(-c3ccc(C#CC(C)(C)O)cc3)cc3sccc23)CC1` (as salt: oxalate) [Example 466, 4-(4-ethylpiperazin-1-yl)-6-[4-(3-hydroxy-3-methyl-1-butynyl)phenyl]thieno[3,2-c]pyridine oxalate] is 124.5 to 125.5 °C; for `CCNC(=O)c1ccc(-c2cc3ccccc3c(N3CCN(CC)CC3)n2)cc1` (as salt: hydrochloride) [Example 364, 1-(4-ethylpiperazin-1-yl)-3-[4-(N-ethylcarbamoyl)phenyl]isoquinoline dihydrochloride] it is 160 to 160.5 °C; for `CCN1CCN(c2nc(C3CCCc4c(OC)cccc43)cc3ccccc23)CC1` (centres unmarked) (as salt: oxalate) it is 133 to 136 °C. The figure for `CCCC(O)c1ccc(-c2cc3ccsc3c(N3CCN(CC)CC3)n2)cc1` (centres unmarked) (as salt: hydrochloride) [Example 446, 7-(4-ethylpiperazin-1-yl)-5-[4-(1-hydroxybutyl)phenyl]thieno[2,3-c]pyridine dihydrochloride] is 112 to 114 °C; for `CCN1CCN(c2nc(-c3ccc(CCC(C)(C)O)cc3)cc3ccccc23)CC1` (as salt: hydrochloride) [Example 388, 1-(4-Ethylpiperazin-1-yl)-3-[4-(3-Hydroxy-3-Methylbutyl)Phenyl]Isoquinoline Dihydrochloride] it is 205 to 206 °C; for `CCCNS(=O)(=O)Cc1ccc(-c2cc3ccccc3c(N3CCN(CC)CC3)n2)cc1` (as salt: hydrochloride) [Example 81, 3-(4-Propylaminosulfonylmethylphenyl)-1-(4-Ethylpiperazin-1-Yl)Isoquinoline Hydrochloride] it is 194 to 197 °C. The figure for `CCN1CCN(c2nc(-c3ccc(S(=O)(=O)N(CC)CC)cc3)cc3ccccc23)CC1` (as salt: hydrochloride) [Example 359, 1-(4-ethylpiperazin-1-yl)-3-[4-(N,N-diethylsulfamoyl)phenyl]isoquinoline dihydrochloride] is 210 to 212 °C (dec.); for `CCNC(=O)Oc1ccc(-c2cc3ccccc3c(N3CCN(CC)CC3)n2)cc1` (as salt: hydrochloride) [Example 59] it is 146 to 150 °C; for `CCN1CCN(c2nc(-c3ccc(OC)cc3)cc3occc23)CC1` (as salt: oxalate) it is 170 to 172 °C (dec.).

As to `CCN1CCN(c2nc(C#Cc3ccc(OCCO)cc3)cc3ccccc23)CC1` (as salt: hydrochloride) [Example 183, 1-(1-Ethylpiperazin-4-Yl]-3-[4-(2-Hydroxyethoxy)Phenylethynyl]Isoquinoline Dihydrochloride], the melting point lay in the range of 205 to 208 °C. `CCN1CCN(c2nc(-c3ccc(C(C)O)cc3)cc3sccc23)CC1` (centres unmarked) (as salt: oxalate) [Example 281, 4-(4-ethylpiperazin-1-yl)-6-[4-(1-hydroxyethyl)phenyl]thieno[3,2-c]pyridine oxalate]: the melting point was 134 to 135 °C.

With `CCN1CCN(c2nc(/C=C/c3ccccn3)cc3ccccc23)CC1` (as salt: hydrochloride) [Example 209, 1-(1-Ethylpiperazin-4-Yl)-3-[Trans-2-(2-Pyridyl)Ethenyl]Isoquinoline Trihydrochloride], the melting point is 220 °C (dec.). For `CCN1CCN(c2nc(-c3ccc(N4CCSCC4)nc3)cc3ccccc23)CC1` (as salt: hydrochloride) [Example 150, 1-(4-ethylpiperazin-1-yl)-3-[2-(thiomorpholin-4-yl)pyridin-5-yl]isoquinoline trihydrochloride], the melting point was 210 °C. To `CCN1CCN(c2nc(-c3ccn(CCO)n3)cc3ccccc23)CC1` (as salt: hydrochloride) belongs 134 to 140 °C; to `CCN1CCN(c2nc(-c3ccc(OCCO)cc3)cc3ccc(F)cc23)CC1` (as salt: hydrochloride), 225 to 229 °C; to `CCN1CCN(c2nc(-c3ccc(OC)cc3)cc3ccc(C)cc23)CC1` (as salt: hydrochloride), 243 to 246 °C.

Consider `CCN1CCN(c2nc(-c3ccc(C(O)CCO)cc3)cc3ccccc23)CC1` (centres unmarked) (as salt: hydrochloride) [Example 24, 3-[4-(1,3-dihydroxypropyl)phenyl]-1-(4-ethylpiperazin-1-yl)isoquinoline hydrochloride], for which the melting point was 145 to 147 °C. The figure for `CCN1CCN(c2nc(-c3ccc(CCC(C)(C)O)cc3)cc3ccsc23)CC1` (as salt: hydrochloride) [Example 439, 7-(4-ethylpiperazin-1-yl)-5-[4-(3-hydroxy-3-methylbutyl)phenyl]thieno[2,3-c]pyridine dihydrochloride] is 122 to 133.5 °C. The figure for `CCN1CCN(c2nc(-c3ccc(C(=O)CC(C)C)cc3)cc3ccsc23)CC1` (as salt: hydrochloride) [Example 272, 7-(1-ethylpiperazin-4-yl)-5-[4-(3-methylbutanoyl)phenyl]thieno[2,3-c]pyridine dihydrochloride] is 139 to 141 °C. The figure for `CCCCS(=O)(=O)Nc1ccc(-c2cc3ccccc3c(N3CCN(CC)CC3)n2)cc1` (as salt: hydrochloride) [Example 73, 3-(4-Butylsulfonylaminophenyl)-1-(4-Ethylpiperazin-1-Yl)Isoquinoline Hydrochloride] is 160 to 163 °C.

Turning to `CCN1CCN(c2nc(-c3ccc(OCCOC)nc3)cc3ccccc23)CC1` (as salt: hydrochloride) [Example 126, 1-(1-Ethylpiperazin-4-yl)-3-[2-(2-Methoxyethoxy)Pyridin-5-yl]Isoquinoline], the melting point was in the range of 115 to 120 °C. To `CC(C)(O)COc1ccc(-c2cc3sccc3c(N3CCN(CCO)CC3)n2)cc1` (as salt: hydrochloride) [Example 296, 6-[4-(2-methyl-2-hydroxypropoxy)phenyl]-4-[4-(2-hydroxyethyl)piperazin-1-yl]thieno]3,2-c]pyridine hydrochloride] belongs 139 to 142 °C; to `CCN1CCN(c2nc(-c3ccc(C4=CCOCC4)s3)cc3ccccc23)CC1` (as salt: hydrochloride) [Example 176, 3-[2-(5,6-Dihydro-2H-Pyran-4-Yl)Thiophen-5-Yl]-1-[4-Ethylpiperazin-1-Yl)Isoquinoline Hydrochloride], 256 to 258 °C. With `CCN1CCN(c2nc(-c3ccnc(OC)c3)cc3ccccc23)CC1` (as salt: hydrochloride) [Example 405, 1-(4-ethylpiperazin-1-yl)-3-(2-methoxypyridin-4-yl)isoquinoline], the melting point fell in the range of 174 to 176 °C. To `CCN1CCN(c2nc(-c3ccc(OCCCc4ccncc4)cc3)cc3ccccc23)CC1` (as salt: hydrochloride) [Example 57, 3-{4-[3-(4-Pyridyl)Propoxy]Phenyl}-1-(4-Ethylpiperazin-1-Yl)Isoquinoline Hydrochloride] belongs 129 to 131 °C; to `CCN1CCN(c2nc(-c3ccc(C(O)CO)cc3)cc3ccccc23)CC1` (centres unmarked) (as salt: hydrochloride) [Example 387, 1-(4-Ethylpiperazin-1-yl)-3-[4-(1,2-Dihydroxyethyl)Phenyl]Isoquinoline Dihydrochloride], 132 to 133 °C; to `CCCS(=O)(=O)c1ccc(-c2cc3ccccc3c(N3CCN(CC)CC3)n2)cc1` (as salt: hydrochloride) [Example 349, 1-(4-ethylpiperazin-1-yl)-3-[4-propylsulfonyl)phenyl]isoquinoline dihydrochloride], 240.5 to 242 °C (dec.). Consider `CCN1CCN(c2nc(-c3ccc(CCCO)cc3)cc3sccc23)CC1` (as salt: hydrochloride) [Example 465, 4-(4-ethylpiperazin-1-yl)-6-[4-(3-hydroxypropy)phenyl]thieno[3,2-c]pyridine dihydrochloride], for which the melting point was 125.5 to 126.5 °C. Turning to `CCN1CCN(c2nc(-c3ccc(CCO)c(F)c3)cc3ccccc23)CC1` (as salt: hydrochloride) [Example 385, 1-(4-Ethylpiperazin-1-yl)-3-[3-Fluoro-4-(2-Hydroxyethyl)Phenyl]Isoquinoline Dihydrochloride], the melting point is 213 to 215 °C (dec.). As to `CCN1CCN(c2nc(C#CCCc3ccccc3)cc3ccccc23)CC1` (as salt: hydrochloride) [Example 182, 1-(1-Ethylpiperazin-4-Yl)-3-[4-Phenyl-1-Butynyl)Isoquinoline Dihydrochloride], the melting point lay in the range of 120 to 128 °C. Compound `CCN1CCN(c2nc(/C=C/c3cc(N4CCOCC4)ncn3)cc3ccccc23)CC1` (as salt: oxalate) [Example 215, 3{(E)-2-[4-(4-morpholinyl)pyrimidin-6-yl]ethenyl}-1-(4-ethylpiperazin-1-yl)isoquinoline oxalate] yielded a melting point of 130 to 134 °C. Turning to `CCN1CCN(c2nc(-c3ccc(OC(F)(F)F)cc3)cc3ccccc23)CC1` (as salt: hydrochloride) [Example 339, 1-(4-ethylpiperazin-1-yl)-3-(4-trifluoromethoxyphenyl)isoquinoline dihydrochloride], the melting point is 113 to 115 °C. On to `CCN1CCN(c2nc(-c3ccc(C(=O)N4CCCC4)cc3)cc3ccsc23)CC1` (as salt: hydrochloride) [Example 274, 7-(1-ethylpiperazin-4-yl)-5-[4-(pyrrolidinyl-1-carbonyl)phenyl]thieno[2,3-c]pyridine dihydrochloride], for which the melting point lay in the range of 143 to 146 °C. To `CCN1CCN(c2nc(-c3ccc(C(O)C(C)(C)CO)cc3)cc3ccccc23)CC1` (centres unmarked) (as salt: hydrochloride) [Example 391, 1-(4-Ethylpiperazin-1-yl)-3-[4-(1,3-Dihydroxy-2,2-Dimethylpropyl)Phenyl]Isoquinoline Dihydrochloride] belongs 150.5 to 151.5 °C.
